Test results published in US10130651B2, “RNAi Therapy for Hepatitis B Virus Infection” (Arrowhead Pharmaceuticals, Inc., priority 2015, dated 2018).
Ends that are not written are not given here.

Key:
Format in all cases: in vivo, NOD-SCID mice (pHBV model)
[1] = Clinical chemistry (liver and renal function) in pHBV model mice; conditions: day 2 (24 hours post-injection) vs day −1
Method: Clinical chemistry markers in mouse serum were measured using a COBAS Integra 400 (Roche Diagnostics, Indianapolis, Ind.) chemical analyzer according to the manufacturer's instructions.
Liver and renal functions were evaluated on day −1 (pre-injection) and day 2 (24 hours post-injection).

[2] = system: HBV DNA, Hepatitis B Virus; assay: Serum HBV DNA (qPCR) in pHBV model mice (Example 7); conditions: 8 mg/kg MLP delivery peptide without HBV RNAi triggers
Excerpt: (§1) At day −42, 6 to 8 week old female NOD.CB17-Prkdscid/NcrCrl (NOD-SCID) mice were transiently transfected in vivo with MC-HBV1.3 by hydrodynamic tail vein injection (Yang P L et al. “Hydrodynamic injection of viral DNA: a mouse model of acute hepatitis B virus infection.” PNAS USA 2002 Vol. 99: p. 13825-13830). MC-HBV1.3 is a plasmid-derived minicircle that contains the same terminally redundant human hepatitis B virus sequence HBV1.3 as in the HBV1.3.32 transgenic mice (GenBank accession #V01460) (Guidotti L G et al. “High-level hepatitis B virus replication in transgenic mice. J Virol 1995 Vol. 69, p 6158-6169.). […] At day −21, three weeks post transfection, Hepatitis B surface antigen (HBsAg) HBsAg expression levels in serum were measured by ELISA and the mice were grouped according to average HBsAg expression levels. […]
(§2) At various times, before and after administration of MLP delivery peptide+HBV RNAi triggers, isotonic glucose, or MLP delivery peptide alone, serum HBsAg, serum HBV DNA, or liver HBV RNA were measured. […]
The number of copies of HBV genomes in DNA isolated from the pHBV mouse model serum was determined by qPCR. […]
qPCR assays were performed on a 7500 Fast or StepOne Plus Real-Time PCR system (Life Technologies). […] Quantitations of HBV DNA and recovery control plasmid were determined by qPCR reactions performed in triplicate. […]

[3] = system: Hepatitis B surface antigen (HBsAg), Hepatitis B Virus; assay: Serum HBsAg (ELISA) in pHBV model mice after IV MLP delivery peptide+HBV RNAi triggers (Example 7); conditions: 8 mg/kg MLP delivery peptide without HBV RNAi triggers
Excerpt: as §1, §2
Serum was collected and diluted 10 to 2000-fold in PBS containing 5% nonfat dry milk. […] HBsAg levels were determined with a GS HBsAg EIA 3.0 kit (Bio-Rad Laboratories, Inc., Redmond, Wash.) as described by the manufacturer. […]

Substance: MLP delivery peptide: MLP SEQ ID NO: 650 (GIL MLP, L-form) reversibly masked with CDM-NAG (LIGAILKVLATGLPTLISWIKNKRKQ; also: reversibly masked with CDM-NAG)
- evidence of toxicity [1]: nor was there any evidence of toxicity
- HBV DNA levels in serum [2]: comparable to levels in mice that received a single injection of isotonic glucose
- HBsAg levels in serum [3]: comparable to levels in mice that received a single injection of isotonic glucose
